From article PMC9019904, “AD Informer Set: Chemical tools to facilitate Alzheimer's disease drug discovery” (Alzheimer's & Dementia : Translational Research & Clinical …, 2022)
≈ marks a conversion by molar mass, not a printed value. Counter-ions that a name gives are not always drawn.

Assays:
[1] = test system: BV2 (mouse microglia) cell line; experiment: pHrodo-myelin phagocytosis/cell viability high content imaging assay: viability (cell count, nuclear area, nuclear intensity)
Procedure, shortened: (§1)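 Viability was read by high-content imaging as cell count per well and nuclear intensity per cell, in murine BV2 and human HMC3 microglial lines. Cells received a single 10 μM compound dose for 48 h, including 20 h with pHrodo-myelin. Duplicate means are expressed as % of untreated control.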

[2] = test system: HMC3 (human microglia) cell line; experiment: as above; details: HMC3, 10 μM
Procedure, shortened: as §1

[3] = test system: BV2 (mouse microglia) cell line; experiment: pHrodo-myelin phagocytosis/cell viability high content imaging assay: phagocytosis signal; type: cell-based
Procedure, shortened: (§2)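 Imaging at high content captured pHrodo-myelin uptake about 22 hours after its addition, alongside a viability read-out from the same cells. Three measurements were derived, with intensity increase marking early apoptosis and decrease marking later apoptosis.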

[4] = test system: HMC3 (human microglia) cell line; experiment: as above; type: cell-based
Procedure, shortened: as §2

[5] = Kinetic solubility in aqueous buffer pH 7.4 by total chemiluminescent nitrogen determination (Analiza); details: aqueous buffer, pH 7.4, aqueous buffer, kinetic from dmso stock

CCN1CCN(Cc2ccc(NC(=O)c3ccc(C)c(NC(=O)c4cncc(-c5cccs5)c4)c3)cc2C(F)(F)F)CC1 [ALW-II-41-27]
Mouse microglial cytotoxicity at 10 μM (<70% control) ([1]; BV2, 10 μM): Y (The compound was found to be cytotoxic (cell count threshold: <70% control) when murine immortalized microglial cells were dosed at 10 μM (Y: yes))
Human microglial cytotoxicity at 10 μM (<70% control) [2]: Y (The compound was found to be cytotoxic (cell count threshold: <70% control) when human immortalized microglial cells were dosed at 10 μM (Y: yes))
Inhibition of mouse microglial phagocytosis at 10 μM (<70% control) ([3]; BV2, 10 μM): Y (The compound was found to inhibit phagocytosis (response threshold: <70% control) when murine immortalized microglial cells were dosed at 10 μM (Y: yes))
Inhibition of human microglial phagocytosis at 10 μM (<70% control) ([4]; HMC3, 10 μM): Y (The compound was found to inhibit phagocytosis (response threshold: <70% control) when human immortalized microglial cells were dosed at 10 μM (Y: yes))
solubility kinetic [5]: 3.7 µM (≈ 2.25 µg/mL)

O=C(NC1CCNCC1)c1n[nH]cc1NC(=O)c1c(Cl)cccc1Cl [AT-7519]
Mouse microglial cytotoxicity at 10 μM (<70% control) ([1]; BV2, 10 μM): Y (The compound was found to be cytotoxic (cell count threshold: <70% control) when murine immortalized microglial cells were dosed at 10 μM (Y: yes))
Inhibition of mouse microglial phagocytosis at 10 μM (<70% control) ([3]; BV2, 10 μM): Y (The compound was found to inhibit phagocytosis (response threshold: <70% control) when murine immortalized microglial cells were dosed at 10 μM (Y: yes))
Stimulation of human microglial phagocytosis at 10 μM (>150% control) ([4]; HMC3, 10 μM): Y (The compound was found to stimulate phagocytosis (response threshold: >150% control) when human immortalized microglial cells were dosed at 10 μM (Y: yes))
solubility kinetic [5]: 146 µM (≈ 55.8 µg/mL)

CN(C)C/C=C/C(=O)Nc1cc2c(Nc3ccc(F)c(Cl)c3)ncnc2cc1O[C@H]1CCOC1 [Afatinib]
Mouse microglial cytotoxicity at 10 μM (<70% control) ([1]; BV2, 10 μM): Y (The compound was found to be cytotoxic (cell count threshold: <70% control) when murine immortalized microglial cells were dosed at 10 μM (Y: yes))
Inhibition of mouse microglial phagocytosis at 10 μM (<70% control) ([3]; BV2, 10 μM): Y (The compound was found to inhibit phagocytosis (response threshold: <70% control) when murine immortalized microglial cells were dosed at 10 μM (Y: yes))
Inhibition of human microglial phagocytosis at 10 μM (<70% control) ([4]; HMC3, 10 μM): Y (The compound was found to inhibit phagocytosis (response threshold: <70% control) when human immortalized microglial cells were dosed at 10 μM (Y: yes))
solubility kinetic [5]: 117 µM (≈ 56.7 µg/mL)

C=CC(=O)Nc1cc2c(Nc3ccc(F)c(Cl)c3)ncnc2cc1OCCCN1CCOCC1 [Canertinib]
Mouse microglial cytotoxicity at 10 μM (<70% control) ([1]; BV2, 10 μM): Y (The compound was found to be cytotoxic (cell count threshold: <70% control) when murine immortalized microglial cells were dosed at 10 μM (Y: yes))
Human microglial cytotoxicity at 10 μM (<70% control) [2]: Y (The compound was found to be cytotoxic (cell count threshold: <70% control) when human immortalized microglial cells were dosed at 10 μM (Y: yes))
Inhibition of mouse microglial phagocytosis at 10 μM (<70% control) ([3]; BV2, 10 μM): Y (The compound was found to inhibit phagocytosis (response threshold: <70% control) when murine immortalized microglial cells were dosed at 10 μM (Y: yes))
Inhibition of human microglial phagocytosis at 10 μM (<70% control) ([4]; HMC3, 10 μM): Y (The compound was found to inhibit phagocytosis (response threshold: <70% control) when human immortalized microglial cells were dosed at 10 μM (Y: yes))
solubility kinetic [5]: 11 µM (≈ 5.35 µg/mL)

O=C(/C=C/c1ccco1)Nc1ncc(Cc2ccccc2)s1 [Compound 1]
Mouse microglial cytotoxicity at 10 μM (<70% control) ([1]; 10 μM, BV2): Y (The compound was found to be cytotoxic (cell count threshold: <70% control) when murine immortalized microglial cells were dosed at 10 μM (Y: yes))
Inhibition of mouse microglial phagocytosis at 10 μM (<70% control) ([3]; 10 μM, BV2): Y (The compound was found to inhibit phagocytosis (response threshold: <70% control) when murine immortalized microglial cells were dosed at 10 μM (Y: yes))
Inhibition of human microglial phagocytosis at 10 μM (<70% control) ([4]; 10 μM, HMC3): Y (The compound was found to inhibit phagocytosis (response threshold: <70% control) when human immortalized microglial cells were dosed at 10 μM (Y: yes))
solubility kinetic [5]: < 1.1 µM

C[C@@H](Oc1cc(-c2cnn(C3CCNCC3)c2)cnc1N)c1c(Cl)ccc(F)c1Cl [Crizotinib]
Inhibition of mouse microglial phagocytosis at 10 μM (<70% control) ([3]; BV2, 10 μM): Y (The compound was found to inhibit phagocytosis (response threshold: <70% control) when murine immortalized microglial cells were dosed at 10 μM (Y: yes))
Inhibition of human microglial phagocytosis at 10 μM (<70% control) ([4]; HMC3, 10 μM): Y (The compound was found to inhibit phagocytosis (response threshold: <70% control) when human immortalized microglial cells were dosed at 10 μM (Y: yes))
solubility kinetic [5]: 160 µM (≈ 72.1 µg/mL)

C[C@H]1Oc2cc(cnc2N)-c2c(nn(C)c2C#N)CN(C)C(=O)c2ccc(F)cc21 [Lorlatinib]
Stimulation of mouse microglial phagocytosis at 10 μM (>150% control) ([3]; BV2, 10 μM): Y (The compound was found to stimulate phagocytosis (response threshold: >150% control) when murine immortalized microglial cells were dosed at 10 μM (Y: yes))
Inhibition of human microglial phagocytosis at 10 μM (<70% control) ([4]; HMC3, 10 μM): Y (The compound was found to inhibit phagocytosis (response threshold: <70% control) when human immortalized microglial cells were dosed at 10 μM (Y: yes))
solubility kinetic [5]: 172 µM (≈ 69.9 µg/mL)

CS[C@@]1(C(=O)Nc2ccc3[nH]nc(-c4ccc(OC(C)C)nc4)c3c2)CCN(CC(=O)N2CC=C(c3ccc(-c4ncn(C)n4)cc3)CC2)C1 [MK-8353]
Mouse microglial cytotoxicity at 10 μM (<70% control) ([1]; 10 μM, BV2): Y (The compound was found to be cytotoxic (cell count threshold: <70% control) when murine immortalized microglial cells were dosed at 10 μM (Y: yes))
Stimulation of mouse microglial phagocytosis at 10 μM (>150% control) ([3]; 10 μM, BV2): Y (The compound was found to stimulate phagocytosis (response threshold: >150% control) when murine immortalized microglial cells were dosed at 10 μM (Y: yes))
Inhibition of human microglial phagocytosis at 10 μM (<70% control) ([4]; 10 μM, HMC3): Y (The compound was found to inhibit phagocytosis (response threshold: <70% control) when human immortalized microglial cells were dosed at 10 μM (Y: yes))
solubility kinetic [5]: 4.8 µM (≈ 3.32 µg/mL)

O=C(Nc1ccc2[nH]nc(-c3ccncc3)c2c1)[C@@H]1CCN(CC(=O)N2CCN(c3ccc(-c4ncccn4)cc3)CC2)C1 [SCH772984]
Mouse microglial cytotoxicity at 10 μM (<70% control) ([1]; 10 μM, BV2): Y (The compound was found to be cytotoxic (cell count threshold: <70% control) when murine immortalized microglial cells were dosed at 10 μM (Y: yes))
Stimulation of mouse microglial phagocytosis at 10 μM (>150% control) ([3]; 10 μM, BV2): Y (The compound was found to stimulate phagocytosis (response threshold: >150% control) when murine immortalized microglial cells were dosed at 10 μM (Y: yes))
Inhibition of human microglial phagocytosis at 10 μM (<70% control) ([4]; 10 μM, HMC3): Y (The compound was found to inhibit phagocytosis (response threshold: <70% control) when human immortalized microglial cells were dosed at 10 μM (Y: yes))
solubility kinetic [5]: 6.2 µM (≈ 3.64 µg/mL)

O=C(O)CCCc1nc(-c2ccc(Cl)c(Cl)c2)c(-c2ccccc2)o1 [SWE101]
Stimulation of mouse microglial phagocytosis at 10 μM (>150% control) ([3]; BV2, 10 μM): Y (The compound was found to stimulate phagocytosis (response threshold: >150% control) when murine immortalized microglial cells were dosed at 10 μM (Y: yes))
Inhibition of human microglial phagocytosis at 10 μM (<70% control) ([4]; HMC3, 10 μM): Y (The compound was found to inhibit phagocytosis (response threshold: <70% control) when human immortalized microglial cells were dosed at 10 μM (Y: yes))
solubility kinetic [5]: 155 µM (≈ 58.4 µg/mL)

CO[C@H]1C[C@@H]2CC[C@@H](C)[C@@](O)(O2)C(=O)C(=O)N2CCCC[C@H]2C(=O)O[C@H]([C@H](C)C[C@@H]2CC[C@@H](O)[C@H](OC)C2)CC(=O)[C@H](C)/C=C(\C)[C@@H](O)[C@@H](OC)C(=O)[C@H](C)C[C@H](C)/C=C/C=C/C=C/1C [Sirolimus]
Mouse microglial cytotoxicity at 10 μM (<70% control) ([1]; 10 μM, BV2): Y (The compound was found to be cytotoxic (cell count threshold: <70% control) when murine immortalized microglial cells were dosed at 10 μM (Y: yes))
Stimulation of mouse microglial phagocytosis at 10 μM (>150% control) ([3]; 10 μM, BV2): Y (The compound was found to stimulate phagocytosis (response threshold: >150% control) when murine immortalized microglial cells were dosed at 10 μM (Y: yes))
Inhibition of human microglial phagocytosis at 10 μM (<70% control) ([4]; 10 μM, HMC3): Y (The compound was found to inhibit phagocytosis (response threshold: <70% control) when human immortalized microglial cells were dosed at 10 μM (Y: yes))
solubility kinetic [5]: 19.8 µM (≈ 18.1 µg/mL)

O=S(=O)(c1ccccc1)N(CC(F)(F)F)c1ccc(C(O)(C(F)(F)F)C(F)(F)F)cc1 [T 0901317]
Stimulation of mouse microglial phagocytosis at 10 μM (>150% control) ([3]; 10 μM, BV2): Y (The compound was found to stimulate phagocytosis (response threshold: >150% control) when murine immortalized microglial cells were dosed at 10 μM (Y: yes))
Inhibition of human microglial phagocytosis at 10 μM (<70% control) ([4]; 10 μM, HMC3): Y (The compound was found to inhibit phagocytosis (response threshold: <70% control) when human immortalized microglial cells were dosed at 10 μM (Y: yes))
solubility kinetic [5]: 40 µM (≈ 19.3 µg/mL)

O=C(CCl)c1ccccc1Nc1cccc(C(F)(F)F)c1 [TED-347]
Stimulation of mouse microglial phagocytosis at 10 μM (>150% control) ([3]; BV2, 10 μM): Y (The compound was found to stimulate phagocytosis (response threshold: >150% control) when murine immortalized microglial cells were dosed at 10 μM (Y: yes))
Inhibition of human microglial phagocytosis at 10 μM (<70% control) ([4]; HMC3, 10 μM): Y (The compound was found to inhibit phagocytosis (response threshold: <70% control) when human immortalized microglial cells were dosed at 10 μM (Y: yes))
solubility kinetic [5]: 40.8 µM (≈ 12.8 µg/mL)

COc1ccc(CCCN2CCC(COC(c3ccccc3)c3ccccc3)CC2)cc1 [UK-78282 HCl]
Stimulation of mouse microglial phagocytosis at 10 μM (>150% control) ([3]; 10 μM, BV2): Y (The compound was found to stimulate phagocytosis (response threshold: >150% control) when murine immortalized microglial cells were dosed at 10 μM (Y: yes))
Inhibition of human microglial phagocytosis at 10 μM (<70% control) ([4]; 10 μM, HMC3): Y (The compound was found to inhibit phagocytosis (response threshold: <70% control) when human immortalized microglial cells were dosed at 10 μM (Y: yes))
solubility kinetic [5]: 796 µM
